Data as given in patent US7378407B2, “Geldanamycin compounds and method of use” (Kosan Biosciences Incorporated, priority 2004, dated 2008).
Read-outs that look alike come from different tables or passages of the source.

Tests used:
human Hsp90α = human Hsp90α (Homo sapiens, UniProt P07900); assay: Hsp90α binding, SPA competition with [allyl-3H]-17-AAG
From the text: Truncated (Carreras et al. Anal. Biochem. 2003, 317, 40-46) and full-length forms of human Hsp90 were expressed in E. coli with N-terminal polyHis and biotinylation recognition sequence (BRS) tags to facilitate purification and SPA assay, respectively. […] The 3′ end of the gene contained a BamHI site, adding a single proline residue to the C-terminus. The tagged full-length protein was cloned into pET21d as described for the tagged N-domain of Hsp90 (Carreras et al., cited supra), and co-expressed with biotin ligase encoded by pBIRAcm (Avidity, Denver, Colo.) in Escherichia coli BL21DE(3).
Biotinylated Hsp90α was added to a 1 mg/mL suspension of streptavidin coated YiSi beads (Pharmacia RPNQ0012; 219 pmol streptavidin/mg) in Binding Buffer (10 mM Tris-HCl, 5 mM MgCl2, pH 7.0) to obtain a final concentration of 225 nM. […] Reaction mixtures were incubated for 2˜4 h at room temperature in 96-well assay plates, then signals for each reaction were measured using a Wallac Microbeta scintillation counter. The resulting data was fit to a competitive binding equation (Segal, I. H., Enzyme Kinetics: Behavior and analysis of rapid equilibrium and steady-state enzyme systems; Wiley Interscience: New York, 1975).

SKBr3 cells = assay: cells; format: cell-based, human; conditions: read-out: Cytotoxicity, SKBr3 Cells (IC50 (nM))
Description: The human breast cancer cell line SKBr3 was obtained from the American Type Culture Collection (Manassas, Va.) and maintained in McCoy's 5A modified medium (Invitrogen; Carlsbad, Calif.) supplemented with 10% fetal bovine serum (FBS) (Hyclone; Logan, Utah) and 2 mM glutamine, in humidified air with 5% CO2 at 37° C.
Cells were seeded in duplicate in 96-well black tissue culture microtiter plates at ˜4000 cells per well and allowed to attach overnight. Serial 10-fold dilutions of compounds were added, and the cells were incubated for 72 h. Cell viability was determined using the CellTiter-Glo™ Luminescent Cell Viability Assay (Promega; Madison, Wis.). IC50 is defined as the concentration of drug required for inhibiting cell growth by 50%.

[1] = biotinylated Hsp90α on streptavidin beads, competition with [allyl-3H]-17-AAG, 2-4 h room temperature, pH 7.0, read-out: Hsp90α Binding (Kd (μM))
[2] = SK-BR-3, human breast cancer cell line SKBr3, 72 h incubation, concentration inhibiting cell growth by 50%

| Compound | Kd (human Hsp90α; [1]) [µM] | IC50 (SKBr3 cells; [2]) [nM] | Kd (human Hsp90α) [µM] | IC50 (SKBr3 cells; Homo sapiens, SK-BR-3, 72 h) [nM] |
| --- | --- | --- | --- | --- |
| CO[C@H]1/C=C\C=C(/C)C(=O)NC2=CC(=O)C(N[C@@H]3C(O)O[C@@H](CO)[C@H](O)[C@H]3O)=C(C[C@@H](C)C[C@H](OC)[C@H](O)[C@@H](C)/C=C(\C)[C@@H]1OC(N)=O)C2=O (stereo partly shown) [Compound 1, 17-(glucos-2-amino)-17-demethoxygeldanamycin] | 0.5 | 1200 |  |  |
| CO[C@H]1/C=C\C=C(/C)C(=O)NC2=CC(=O)C(NCCP(=O)(O)O)=C(C[C@@H](C)C[C@H](OC)[C@H](O)[C@@H](C)/C=C(\C)[C@@H]1OC(N)=O)C2=O [Compound 8] |  |  | 0.6 | ~3000 |
| C=CCNC1=C2C[C@@H](C)C[C@H](OC)[C@H](O)[C@@H](C)/C=C(\C)[C@H](OC(N)=O)[C@@H](OC)/C=C\C=C(/C)C(=O)NC(=CC1=O)C2=O [Compound 17-AAG, 17-allylamino-17-demethoxy-geldanamycin, reference compound] |  |  |  | 38 |
| CO[C@H]1/C=C\C=C(/C)C(=O)NC2=CC(=O)C(NCC[N+](C)(C)[O-])=C(C[C@@H](C)C[C@H](OC)[C@H](O)[C@@H](C)/C=C(\C)[C@@H]1OC(N)=O)C2=O [Compound 4, [2-(17-demethoxygeldanamycin-17-ylamino)-ethyl]dimethylamine N-oxide] | 0.6 | > 1000 |  |  |
| CO[C@H]1/C=C\C=C(/C)C(=O)NC2=CC(=O)C(NCCCCP(=O)(O)O)=C(C[C@@H](C)C[C@H](OC)[C@H](O)[C@@H](C)/C=C(\C)[C@@H]1OC(N)=O)C2=O [Compound 10] |  |  |  | ~2000 |
| CO[C@H]1/C=C\C=C(/C)C(=O)NC2=CC(=O)C(NCC[N+](C)(C)C)=C(C[C@@H](C)C[C@H](OC)[C@H](O)[C@@H](C)/C=C(\C)[C@@H]1OC(N)=O)C2=O [Compound 3, {[2-(17-demethoxygeldanamycin-17-yl)amino]ethyl}trimethylammonium chloride] | 0.3 | > 1000 |  |  |
| CO[C@H]1/C=C\C=C(/C)C(=O)NC2=CC(=O)C(NCCC(=O)O)=C(C[C@@H](C)C[C@H](OC)[C@H](O)[C@@H](C)/C=C(\C)[C@@H]1OC(N)=O)C2=O [Compound 7] | 1.1 | > 5000 |  |  |
| CO[C@H]1/C=C\C=C(/C)C(=O)NC2=CC(=O)C(NCCOCCOCCOCCNC(=O)CCCC[C@@H]3SC[C@@H]4NC(=O)N[C@@H]43)=C(C[C@@H](C)C[C@H](OC)[C@H](O)[C@@H](C)/C=C(\C)[C@@H]1OC(N)=O)C2=O [Compound 6] | 1.1 | > 1000 |  |  |
| CO[C@H]1/C=C\C=C(/C)C(=O)NC2=CC(=O)C(NCCCP(=O)(O)O)=C(C[C@@H](C)C[C@H](OC)[C@H](O)[C@@H](C)/C=C(\C)[C@@H]1OC(N)=O)C2=O [Compound 9] |  |  | 0.9 | ~1000 |
| CO[C@H]1/C=C\C=C(/C)C(=O)NC2=CC(=O)C(NCCOCCOCCNC(=O)CCCC[C@@H]3SC[C@@H]4NC(=O)N[C@@H]43)=C(C[C@@H](C)C[C@H](OC)[C@H](O)[C@@H](C)/C=C(\C)[C@@H]1OC(N)=O)C2=O [Compound 5] |  | > 1000 |  |  |
| CO[C@H]1/C=C\C=C(/C)C(=O)NC2=CC(=O)C(NC[C@@H]3OC(O)[C@@H](O)[C@H](O)[C@H]3O)=C(C[C@@H](C)C[C@H](OC)[C@H](O)[C@@H](C)/C=C(\C)[C@@H]1OC(N)=O)C2=O (stereo partly shown) [Compound 2, 17-(glucos-6-amino)-17-demethoxygeldanamycin] | 0.2 | 5300 |  |  |
